Reference: patent publication US20110201620A1, “2-(3-AMINOARYL) AMINO-4-ARYL-THIAZOLES AND THEIR USE AS C-KIT INHIBITORS” (AB SCIENCE, priority 2002, published 2011)

Experiments:
[1] = target: c-Kit gain-of-function mutant V559D (exon 11) (Homo sapiens, UniProt P10721, V559D); details: in vitro; cited from earlier work
advanced GIST = details: cited from earlier work
GIST = details: 345 patients, 400 mg/day, cited from earlier work

Structure (SMILES)	melting point [°C]	other results
Cc1ccc(NC(=O)c2ccc(C(C)(C)C)cc2)cc1Nc1nc(-c2cccnc2)cs1 [Compound 049, 4-tert-Butyl-N-[4-methyl-3-(4-pyridin-3-yl-thiazol-2-ylamino)-phenyl]-benzamide]	145 to 150	
Cc1ccc(NC(=O)c2ccc(N(C)C)cc2)cc1Nc1nc(-c2cccnc2)cs1 [Compound 047, 4-Dimethylamino-N-[4-methyl-3-(4-pyridin-3-yl-thiazol-2-ylamino)-phenyl]-benzamide]	147 to 150	
CS(=O)(=O)O.CS(=O)(=O)O.Cc1ccc(NC(=O)c2ccc(CN3CCN(C)CC3)cc2)cc1Nc1nc(-c2cccnc2)cs1 [masitinib mesilate, 4-(4-methylpiperazin-1-ylmethyl)-N-[4-methyl-3-(4-pyridin-3ylthiazol-2-ylamino)phenyl]benzamide-mesylate methane sulfonic acid salt]		inhibition of c-Kit mutant V559D (exon 11) [1]: potently inhibits
Cc1ccc(NC(=O)Nc2ccccc2F)cc1Nc1nc(-c2cccnc2)cs1 [Compound 023, 1-(2-Fluoro-phenyl)-3-[4-methyl-3-(4-pyridin-3-yl-thiazol-2-ylamino)-phenyl]-urea]	203 to 206	
Cc1ccc(NC(=O)Nc2ccc(C)c(Nc3nc(-c4cccnc4)cs3)c2)cc1 [Compound 026, 1-[4-Methyl-3-(4-pyridin-3-yl-thiazol-2-ylamino)-phenyl]-3-p-tolyl-urea]	238 to 240	
COc1cccc(C(=O)Nc2ccc(C)c(Nc3nc(-c4cccnc4)cs3)c2)c1 [Compound 059]	76 to 79	
Cc1ccc(NC(=O)c2cccc(N(C)C)c2)cc1Nc1nc(-c2cccnc2)cs1 [Compound 088, 3-Dimethylamino-N-[4-methyl-3-(4-pyridin-3-yl-thiazol-2-ylamino)-phenyl]-benzamide]	197 to 198	
Cc1ccc(NC(=O)c2ccc(-c3ccncc3)cc2)cc1Nc1nc(-c2cccnc2)cs1 [Compound 046, N-[4-Methyl-3-(4-pyridin-3-yl-thiazol-2-ylamino)-phenyl]-4-pyridin-4-yl-benzamide]	254 to 256	
Cc1ccc(NC(=O)c2cccc(N3CCOCC3)c2)cc1Nc1nc(-c2cccnc2)cs1 [Compound 090, N-[4-Methyl-3-(4-pyridin-3-yl-thiazol-2-ylamino)-phenyl]-3-morpholin-4-yl-benzamide]	247 to 248	
Cc1ccc(NC(=O)c2ccc(NS(=O)(=O)c3cccs3)cc2)cc1Nc1nc(-c2cccnc2)cs1 [Compound 044, N-[4-Methyl-3-(4-pyridin-3-yl-thiazol-2-ylamino)-phenyl]-4-(thiophene-2-sulfonylamino)-benzamide]	230 to 233	
Cc1ccc(F)c(C(=O)Nc2ccc(C)c(Nc3nc(-c4cccnc4)cs3)c2)c1 [Compound 048, 2-Fluoro-5-methyl-N-[4-methyl-3-(4-pyridin-3-yl-thiazol-2-ylamino)-phenyl]-benzamide]	103 to 106	
Cc1ccc(NC(=O)c2ccc(CN3CCN(C)CC3)cc2)cc1Nc1nccc(-c2cccnc2)n1 [imatinib]		2-year survival rate of patients with advanced GIST (advanced GIST; after introduction of imatinib (pre-imatinib 25%)): about 70%; early resistance (progression within the first 6 months, no response), patients (advanced GIST; in vivo): 10-15%; median PFS (GIST; 95% CI [16-21]): 18 months; 2-year PFS rate (GIST; 95% CI [36-47]): 46%; Median overall survival (OS) (GIST; 95% CI [47-62]): 55 months; 2-year survival (GIST; 95% CI [67-77]): 72%; 3-year survival (GIST): ~61%
Cc1ccc(NC(=O)CCCN2CCOCC2)cc1Nc1nc(-c2cccnc2)cs1 [Compound 096, N-[4-Methyl-3-(4-pyridin-3-yl-thiazol-2-ylamino)-phenyl]-4-morpholin-4-yl-butyramide]	116 to 120	
Cc1ccc(NC(=O)c2cccc(F)c2)cc1Nc1nc(-c2cccnc2)cs1 [Compound 045, 3-Fluoro-N-[4-methyl-3-(4-pyridin-3-yl-thiazol-2-ylamino)-phenyl]-benzamide]	184 to 186	
Cc1ccc(NC(=O)c2cccc(OCCN3CCOCC3)c2)cc1Nc1nc(-c2cccnc2)cs1 [Compound 052, N-[4-Methyl-3-(4-pyridin-3-yl-thiazol-2-ylamino)-phenyl]-3-(2-morpholin-4-yl-ethoxy)-benzamide]	75 to 80	
Cc1ccc(NC(=O)Nc2cccc(F)c2)cc1Nc1nc(-c2cccnc2)cs1 [Compound 025, 1-(3-Fluoro-phenyl)-3-[4-methyl-3-(4-pyridin-3-yl-thiazol-2-ylamino)-phenyl]-urea]	210 to 215	
